Data published in US20020081686A1 (priority 1999, published 2002).

System: PPK2
Details: 1 mM Pi
Excerpt: PPK2 has been detected in crude cell extracts of K.pneumoniae and E. coli.

**Q.** phosphate was tested. Which “inhibition of PPK2” value did it give?
**A.** The value was “about 90%”.
